Assay results: patent publication US20240043808A1, “Screenable Liver Disease Models and Methods” (INSPHERO AG, priority 2016, published 2024)
Entries after “also recorded” stand apart in the source; their conditions may differ. Where two headings read alike, the source gives them in different places.

What was measured:
[1] = test system: liver MT triple-culture (hepatocyte+inflammatory cells+stellate cells); assay: Viability of liver MT triple-culture treated with pro-fibrotic compounds; conditions: co-cultured microtissues, exposure over 14 days
[2] = test system: liver MT triple-culture (hepatocyte+inflammatory cells+stellate cells); assay: Pro-fibrotic gene expression in liver MT triple-culture treated with pro-fibrotic compounds; conditions: co-cultured microtissues, 14 days
Description: MT mRNA was extracted using TRIzol conventional procedure and fold induction were calculated as 2^(−ΔΔCT) for each sample and negative control and expressed as mean fold induction±S.E.M. of three replicates with six MTs each. Actin was used as reference gene for each sample.

[3] = test system: Human liver microtissues (+Kupffer cells) with stellate cells; assay: Inhibition of fibrosis progression, immunohistochemical staining of collagen I; format: cell-based; conditions: 7 days treatment, stellate cell comprising microtissues, in presence of TGF-β1
Text: FIG. 6: Therapeutic effect of inhibition of pro-fibrotic effector pathways (TGF-βR, TK-R) was confirmed in triple co-culture liver MTs. Human liver MTs prepared form primary human hepatocytes, primary human Kupffer cells and primary human stellate cells where treated with TGF-β1 alone, or in combination with undisclosed inhibitors of i) TGF-β1 receptor, ii) ALK5, and iii) Tyrosine Kinase receptors.
Human liver microtissues (+Kupffer cells) without stellate cells and with either a stellate cell line or primary human stellate cells were treated with a fibrosis inducer (TGF-β1) and in combination with an undisclosed fibrosis inhibitor. […] Even more pronounced is the difference between TGF-β1 treated stellate cell comprising microtissues and TGF-β1/inhibitor treated cultures.

[4] = test system: mono-cultured (HepaRG) and triple/co-cultured (HepaRG THP1/hTERT-HSC) liver MT; assay: Gene expression of fibrotic markers and cytokines in liver MT exposed to LPS, TNF-α and TGF-β1; format: cell-based, human; conditions: for IL-6 gene induction: HepaRG monocultures
Text: Induction of fibrosis biomarkers, Collagen I and IV upon treatment with inflammation-stimuli LPS or TNF-α and pro-fibrotic TGF-β1 signaling molecule. […] Actin was used as reference gene for each sample. ND: no-detected values. *; P≤0.05.
In order to assess the responsiveness towards prototypic inflammatory stimuli and pro-fibrotic stimuli on a gene-expression level, mono-cultured (HepaRG) and triple/co-cultured (HepaRG THP1/hTERT-HSC) liver MT were stimulated with inflammatory inducers (LPS or TNF-α) and the pro-fibrotic cytokine TGF-β1 to assess the cellular responses. Significant differences in the responses of the two types of MT were observed (FIG. 4). […] For example, mRNA of collagen I was only detected in the co-culture system, but not in the monocultures.

[5] = test system: triple/co-cultured (HepaRG THP1/hTERT-HSC) liver MT; assay: MTT viability of liver MT stimulated with inflammatory and pro-fibrotic stimuli; format: cell-based, human; conditions: co-cultured microtissues, 14 days of treatment
[6] = test system: liver endothelial cells (LEC); conditions: 5 days treatment, sub-toxic doses, LEC-coated microtissues
Text: FIG. 7: Assessment of LEC-specific toxicity.
Spheroidal liver microtissues containing hepatocytes and Kupffer cells were coated with liver endothelial cells (LEC) and subjected to 5 days treatment with sub-toxic doses of Acetaminophen (APAP), Cyclophosphamide and Monocrotaline (FIG. 7). After the treatment, microtissues were collected, formalin fixed and paraffin embedded, sliced and stained by immunohistochemistry for the LEC-marker CD31.

liver microtissues [7] = assay: Lipid loading of liver microtissues, nile-red staining of lipid accumulation (steatosis); format: cell-based; conditions: for lipid accumulation in microtissues: increasing concentrations of free fatty acid, nile-red staining
Description: FIG. 3A(1): Induction of liver-disease phenotype “steatosis” as determined by lipid accumulation. […] Images are depicted as maximal intensity projections.
FIG. 3A (2): Lipid accumulation in dependency of increasing concentrations of PA, OA or a combination thereof in a molar ratio of 2:1. The total amount of FFA was identical among the groups at a given concentration.
(§1) • Dissolve FFA-free BSA at RT for 1h in H2O for desired stock solution concentration • Dissolve desired amount of OA-Na in 1 mL 0.1 M NaOH-->at 70° C. • Dissolve desired amount of PA-Na 1 mL 0.1 M NaOH-->at 70° • Keep the FFAs on 70° C., while the BSA is placed on 37° C. • Mix FFA with BSA with a magnetic stirrer (for 30 min) • Dilute BSA with 0.1 M NaOH->vehicle control • Cool down to RT, sterile filter, aliquot and freeze. • For a final fatty acid (FA) solution dilute master stock in medium. • Replace medium of liver microtissues with FA-containing medium and incubate 2-7 days.

liver microtissues [8] = assay: ATP measurement after exposure of liver microtissues to free fatty acids; format: cell-based; conditions: increasing concentrations of FFA for 3-14 days; control BSA
Description: FIG. 3A(3): ATP measurements from identical groups after exposure to increasing concentrations of FFA for 3-14 days.
as §1

## CC(=N)S [TAA, Thiocetamide]
[1]
  MT viability: Dose-dependent loss of viability or metabolic activity; also recorded: dose-dependent decrease
[2]
  transcriptional induction of collagen I, collagen IV, fibronectin I and CD44: greatly enhanced; also recorded: dose-dependent transcriptional induction

## TGF-β1: pro-fibrotic cytokine, fibrosis inducer
[3]
  fibrotic phenotype, collagen I deposition: severe fibrotic phenotype with collagen deposition
[4]
  IL-6 gene induction: did not induce
[4]; co-cultures
  IL-6 gene expression: observed in co-cultures
[5]
  cellular viability: decreased viability

## C[C@H]1C(=O)O[C@@H]2CCN3CC=C(COC(=O)[C@](C)(O)[C@]1(C)O)[C@H]23 [monocrotalin, Monocrotaline]
[6]
  LEC-marker CD31 (immunohistochemistry): heavily reduced or completely absent
[6]; listed as Monocrotaline
  LEC-marker CD31 (immunohistochemistry): reduced LEC-presence

## TNF-α
[4]
  IL-6 gene induction: strongly responsive
[5]
  cellular viability: increased cellular viability

## CCCCCCCCCCCCCCCC(=O)O [PA, palmitic acid]
Liver microtissues [7]
  steatosis phenotype (lipid droplets in hepatocytes): rather macrovesicular phenotype
  lipid accumulation in microtissues: reduced lipid incorporation at concentrations higher than PA3
Liver microtissues [7]; listed as Palmitate
  lipid accumulation in microtissues: induced lipid accumulation
Liver microtissues [8]
  ATP: decreased values in microtissues exposed to PA4 and higher

## O=P1(N(CCCl)CCCl)NCCCO1 (centres unmarked) [cyclosphosphamide, Cyclophosphamide]
[6]
  LEC-marker CD31 (immunohistochemistry): heavily reduced or completely absent
[6]; listed as Cyclosphosphamide
  LEC-marker CD31 (immunohistochemistry): reduced LEC-presence

## CCCCCCCC/C=C\CCCCCCCC(=O)O [OA, Oleate]
Liver microtissues [7]; FIG. 3A1
  steatosis phenotype (lipid droplets in hepatocytes): small lipid droplets (microvesicular steatosis)
